The NIST ThermoML archive (doi:10.1016/j.jct.2016.04.003)
Numbers after ± are expanded uncertainties.

Test: xn = mol fraction of the nth substance listed
Settings: for surface tension liquid-gas: Drop volume; for viscosity / speed of sound / mass density: 99 kPa, Liquid; for viscosity: Capillary tube (Ostwald / Ubbelohde) method; for speed of sound: Frequency=3 MHz, Sing-around technique in a fixed-path interferometer; for mass density: Vibrating tube method

CCCC[n+]1ccccc1.F[B-](F)(F)F [1-butylpyridinium tetrafluoroborate] + O
surface tension liquid-gas (313.15 K, x1 = 0.0115): 55.5 ± 0.6 mN/m | surface tension liquid-gas (313.15 K, x1 = 0.0185): 53 ± 0.6 mN/m | surface tension liquid-gas (313.15 K, x1 = 0.0271): 51.6 ± 0.6 mN/m | surface tension liquid-gas (313.15 K, x1 = 0.0372): 50.3 ± 0.5 mN/m | surface tension liquid-gas (313.15 K, x1 = 0.0456): 49.9 ± 0.5 mN/m | surface tension liquid-gas (313.15 K, x1 = 0.0942): 48.5 ± 0.5 mN/m | surface tension liquid-gas (313.15 K, x1 = 0.1907): 47.9 ± 0.5 mN/m | surface tension liquid-gas (313.15 K, x1 = 0.2846): 47.7 ± 0.5 mN/m | surface tension liquid-gas (313.15 K, x1 = 0.34): 47.6 ± 0.5 mN/m | surface tension liquid-gas (313.15 K, x1 = 0.3866): 47.6 ± 0.5 mN/m | surface tension liquid-gas (313.15 K, x1 = 0.486): 47 ± 0.5 mN/m | surface tension liquid-gas (313.15 K, x1 = 0.5777): 46.6 ± 0.5 mN/m | surface tension liquid-gas (313.15 K, x1 = 0.6943): 46.2 ± 0.5 mN/m | surface tension liquid-gas (313.15 K, x1 = 0.7779): 45.9 ± 0.5 mN/m | surface tension liquid-gas (313.15 K, x1 = 0.835): 45.7 ± 0.5 mN/m | surface tension liquid-gas (313.15 K, x1 = 0.925): 45.7 ± 0.5 mN/m | surface tension liquid-gas (313.15 K, x1 = 1): 45.7 ± 0.5 mN/m | viscosity (313.15 K, x1 = 0.047): 0.845 ± 0.068 mPa·s | viscosity (313.15 K, x1 = 0.095): 1.16 ± 0.093 mPa·s | viscosity (313.15 K, x1 = 0.2001): 1.741 ± 0.14 mPa·s | viscosity (313.15 K, x1 = 0.2912): 2.929 ± 0.23 mPa·s | viscosity (313.15 K, x1 = 0.4015): 5.101 ± 0.41 mPa·s | viscosity (313.15 K, x1 = 0.4807): 8.106 ± 0.65 mPa·s | viscosity (313.15 K, x1 = 0.5815): 11.33 ± 0.91 mPa·s | viscosity (313.15 K, x1 = 0.6641): 15.02 ± 1.2 mPa·s | viscosity (313.15 K, x1 = 0.7855): 26.33 ± 2.1 mPa·s | viscosity (313.15 K, x1 = 0.8875): 44.04 ± 3.5 mPa·s | viscosity (313.15 K, x1 = 0.9305): 53.39 ± 4.3 mPa·s | viscosity (313.15 K, x1 = 0.9705): 63.74 ± 5.1 mPa·s | viscosity (313.15 K, x1 = 1): 71.1 ± 5.7 mPa·s | speed of sound (313.15 K, x1 = 0.0165): 1560 ± 1.2 m/s | speed of sound (313.15 K, x1 = 0.0379): 1576.8 ± 1.2 m/s | speed of sound (313.15 K, x1 = 0.0863): 1590.3 ± 1.2 m/s | speed of sound (313.15 K, x1 = 0.101): 1591.9 ± 1.2 m/s | speed of sound (313.15 K, x1 = 0.134): 1593.4 ± 1.2 m/s | speed of sound (313.15 K, x1 = 0.243): 1590.6 ± 1.3 m/s | speed of sound (313.15 K, x1 = 0.289): 1587.9 ± 1.3 m/s | speed of sound (313.15 K, x1 = 0.3456): 1585 ± 1.3 m/s | speed of sound (313.15 K, x1 = 0.4217): 1580.8 ± 1.3 m/s | speed of sound (313.15 K, x1 = 0.5485): 1575.2 ± 1.4 m/s | speed of sound (313.15 K, x1 = 0.6029): 1573.3 ± 1.4 m/s | speed of sound (313.15 K, x1 = 0.7232): 1569.9 ± 1.4 m/s | speed of sound (313.15 K, x1 = 0.8005): 1568.4 ± 1.5 m/s | speed of sound (313.15 K, x1 = 0.8575): 1567.3 ± 1.5 m/s | speed of sound (313.15 K, x1 = 0.9315): 1566.3 ± 1.5 m/s | speed of sound (313.15 K, x1 = 1): 1565.6 ± 1.6 m/s | mass density (313.15 K, x1 = 0.0165): 1021.2 ± 1 kg/m3 | mass density (313.15 K, x1 = 0.0379): 1049.2 ± 1 kg/m3 | mass density (313.15 K, x1 = 0.0863): 1089.2 ± 1 kg/m3 | mass density (313.15 K, x1 = 0.101): 1097.8 ± 1 kg/m3 | mass density (313.15 K, x1 = 0.134): 1113.3 ± 1 kg/m3 | mass density (313.15 K, x1 = 0.243): 1144.4 ± 1 kg/m3 | mass density (313.15 K, x1 = 0.289): 1152.9 ± 1 kg/m3 | mass density (313.15 K, x1 = 0.3456): 1161.3 ± 1 kg/m3 | mass density (313.15 K, x1 = 0.4217): 1170.1 ± 1 kg/m3 | mass density (313.15 K, x1 = 0.5485): 1180.9 ± 1 kg/m3 | mass density (313.15 K, x1 = 0.6029): 1184.6 ± 1 kg/m3 | mass density (313.15 K, x1 = 0.7232): 1191.6 ± 1 kg/m3 | mass density (313.15 K, x1 = 0.8005): 1195.3 ± 1 kg/m3 | mass density (313.15 K, x1 = 0.8575): 1197.8 ± 1 kg/m3 | mass density (313.15 K, x1 = 0.9315): 1200.9 ± 1.1 kg/m3 | mass density (313.15 K, x1 = 1): 1203.7 ± 1.1 kg/m3 | surface tension liquid-gas (323.15 K, x1 = 0.0115): 54.5 ± 0.6 mN/m | surface tension liquid-gas (323.15 K, x1 = 0.0185): 52 ± 0.6 mN/m | surface tension liquid-gas (323.15 K, x1 = 0.0271): 50.5 ± 0.5 mN/m | surface tension liquid-gas (323.15 K, x1 = 0.0372): 49.5 ± 0.5 mN/m | surface tension liquid-gas (323.15 K, x1 = 0.0456): 48.7 ± 0.5 mN/m | surface tension liquid-gas (323.15 K, x1 = 0.0942): 47.7 ± 0.5 mN/m | surface tension liquid-gas (323.15 K, x1 = 0.1907): 47.1 ± 0.5 mN/m | surface tension liquid-gas (323.15 K, x1 = 0.2846): 46.9 ± 0.5 mN/m | surface tension liquid-gas (323.15 K, x1 = 0.34): 46.6 ± 0.5 mN/m | surface tension liquid-gas (323.15 K, x1 = 0.3866): 46.4 ± 0.5 mN/m | surface tension liquid-gas (323.15 K, x1 = 0.486): 46.1 ± 0.5 mN/m | surface tension liquid-gas (323.15 K, x1 = 0.5777): 45.8 ± 0.5 mN/m | surface tension liquid-gas (323.15 K, x1 = 0.6943): 45.6 ± 0.5 mN/m | surface tension liquid-gas (323.15 K, x1 = 0.7779): 45.3 ± 0.5 mN/m | surface tension liquid-gas (323.15 K, x1 = 0.835): 45.1 ± 0.5 mN/m | surface tension liquid-gas (323.15 K, x1 = 0.925): 45.1 ± 0.5 mN/m | surface tension liquid-gas (323.15 K, x1 = 1): 45.1 ± 0.5 mN/m | viscosity (323.15 K, x1 = 0.047): 0.708 ± 0.057 mPa·s | viscosity (323.15 K, x1 = 0.095): 0.867 ± 0.07 mPa·s | viscosity (323.15 K, x1 = 0.2001): 1.418 ± 0.11 mPa·s | viscosity (323.15 K, x1 = 0.2912): 2.295 ± 0.18 mPa·s | viscosity (323.15 K, x1 = 0.4015): 3.991 ± 0.32 mPa·s | viscosity (323.15 K, x1 = 0.4807): 5.631 ± 0.45 mPa·s | viscosity (323.15 K, x1 = 0.5815): 7.929 ± 0.64 mPa·s | viscosity (323.15 K, x1 = 0.6641): 10.77 ± 0.86 mPa·s | viscosity (323.15 K, x1 = 0.7855): 18.47 ± 1.5 mPa·s | viscosity (323.15 K, x1 = 0.8875): 27.32 ± 2.2 mPa·s | viscosity (323.15 K, x1 = 0.9305): 34.39 ± 2.8 mPa·s | viscosity (323.15 K, x1 = 0.9705): 40.41 ± 3.2 mPa·s | viscosity (323.15 K, x1 = 1): 45.56 ± 3.7 mPa·s | speed of sound (323.15 K, x1 = 0.0165): 1561.9 ± 1.2 m/s | speed of sound (323.15 K, x1 = 0.0379): 1571.9 ± 1.2 m/s | speed of sound (323.15 K, x1 = 0.0863): 1577.9 ± 1.2 m/s | speed of sound (323.15 K, x1 = 0.101): 1577.7 ± 1.2 m/s | speed of sound (323.15 K, x1 = 0.134): 1576.8 ± 1.2 m/s | speed of sound (323.15 K, x1 = 0.243): 1569.9 ± 1.3 m/s | speed of sound (323.15 K, x1 = 0.289): 1566.7 ± 1.3 m/s | speed of sound (323.15 K, x1 = 0.3456): 1562.9 ± 1.3 m/s | speed of sound (323.15 K, x1 = 0.4217): 1558.9 ± 1.3 m/s | speed of sound (323.15 K, x1 = 0.5485): 1553.2 ± 1.4 m/s | speed of sound (323.15 K, x1 = 0.6029): 1551.3 ± 1.4 m/s | speed of sound (323.15 K, x1 = 0.7232): 1548 ± 1.4 m/s | speed of sound (323.15 K, x1 = 0.8005): 1546.4 ± 1.5 m/s | speed of sound (323.15 K, x1 = 0.8575): 1545.2 ± 1.5 m/s | speed of sound (323.15 K, x1 = 0.9315): 1544.1 ± 1.5 m/s | speed of sound (323.15 K, x1 = 1): 1543.5 ± 1.6 m/s | mass density (323.15 K, x1 = 0.0165): 1016.5 ± 1 kg/m3 | mass density (323.15 K, x1 = 0.0379): 1043.9 ± 1 kg/m3 | mass density (323.15 K, x1 = 0.0863): 1083 ± 1 kg/m3 | mass density (323.15 K, x1 = 0.101): 1091.5 ± 1 kg/m3 | mass density (323.15 K, x1 = 0.134): 1106.6 ± 1 kg/m3 | mass density (323.15 K, x1 = 0.243): 1137.2 ± 1 kg/m3 | mass density (323.15 K, x1 = 0.289): 1145.6 ± 1 kg/m3 | mass density (323.15 K, x1 = 0.3456): 1153.8 ± 1 kg/m3 | mass density (323.15 K, x1 = 0.4217): 1162.6 ± 1 kg/m3 | mass density (323.15 K, x1 = 0.5485): 1173.4 ± 1 kg/m3 | mass density (323.15 K, x1 = 0.6029): 1177.2 ± 1 kg/m3 | mass density (323.15 K, x1 = 0.7232): 1184.2 ± 1 kg/m3 | mass density (323.15 K, x1 = 0.8005): 1188 ± 1 kg/m3 | mass density (323.15 K, x1 = 0.8575): 1190.6 ± 1 kg/m3 | mass density (323.15 K, x1 = 0.9315): 1193.8 ± 1.1 kg/m3 | mass density (323.15 K, x1 = 1): 1196.7 ± 1.1 kg/m3
